Reference: PubChem BioAssay (NCI)
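Results reflect a 48-hour exposure of cells in 96-well plates to compound at five concentrations. The concentration for 50% growth inhibition is given as GI50. TGI is the concentration that stops growth completely.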

What was measured:
Test in all cases: NCI anticancer screen, dose series, 48 h
SF-268 CNS = tested on: SF-268 CNS
NCI-H460 lung = tested on: NCI-H460 lung
786-0 renal = tested on: 786-0 renal
UACC-257 melanoma = tested on: UACC-257 melanoma
T-47D breast = tested on: T-47D breast
HS 578T breast = tested on: HS 578T breast
SF-539 CNS = tested on: SF-539 CNS
UO-31 renal = tested on: UO-31 renal
M19-MEL melanoma = tested on: M19-MEL melanoma
DMS 273 small cell lung = tested on: DMS 273 small cell lung
DLD-1 colon = tested on: DLD-1 colon
SNB-78 CNS = tested on: SNB-78 CNS

O=C(NCc1ccc(Cn2c(=O)sn(-c3ccccc3)c2=O)cc1)OCc1ccc2c(Br)cc(Br)c(O)c2n1
GI50 (SF-268 CNS): 1.46 µM | TGI (SF-268 CNS): 2.88 µM | GI50 (NCI-H460 lung): 1.48 µM | TGI (NCI-H460 lung): 3.37 µM | GI50 (786-0 renal): 0.495 µM | TGI (786-0 renal): 1.08 µM | GI50 (UACC-257 melanoma): 1.26 µM | TGI (UACC-257 melanoma): 2.74 µM | GI50 (T-47D breast): 1.71 µM | TGI (T-47D breast): 5.66 µM | GI50 (HS 578T breast): 1.62 µM | TGI (HS 578T breast): 4.9 µM | GI50 (SF-539 CNS): 0.793 µM | TGI (SF-539 CNS): 2.07 µM | GI50 (UO-31 renal): 0.392 µM | TGI (UO-31 renal): 1.77 µM

Cc1ccc(S(=O)(=O)OCC23CCC(CC2)C2CC23)cc1 (stereo not drawn)
TGI (SF-268 CNS): > 100 µM | TGI (M19-MEL melanoma): > 100 µM | TGI (DMS 273 small cell lung): > 100 µM | TGI (NCI-H460 lung): > 100 µM | TGI (786-0 renal): > 100 µM | TGI (UACC-257 melanoma): > 100 µM | TGI (UO-31 renal): > 100 µM | TGI (DLD-1 colon): > 100 µM

COc1ccc(/C=C2\CCC(CNc3ccc(OC)cc3)C2=O)cc1 (stereo not drawn)
TGI (SF-268 CNS): 34.1 µM | TGI (NCI-H460 lung): > 85.3 µM | TGI (786-0 renal): 23.2 µM | TGI (UACC-257 melanoma): 34.5 µM | TGI (T-47D breast): 57.1 µM | TGI (HS 578T breast): > 100 µM | TGI (SF-539 CNS): 36.4 µM | TGI (UO-31 renal): 36.1 µM

CCC(=O)c1c(NOC2OC(COC(C)=O)C(OC(C)=O)C(OC(C)=O)C2OC(C)=O)nc(OC)n(C)c1=O (stereo not drawn)
TGI (SF-268 CNS): > 100 µM | TGI (M19-MEL melanoma): > 100 µM | TGI (DMS 273 small cell lung): > 100 µM | TGI (NCI-H460 lung): > 100 µM | TGI (786-0 renal): > 100 µM | TGI (SF-539 CNS): > 100 µM | TGI (SNB-78 CNS): > 100 µM | TGI (DLD-1 colon): > 100 µM

Clc1ccc(C2SCc3nc4ccccc4n32)cc1Cl (stereo not drawn)
TGI (SF-268 CNS): 37.6 µM | TGI (NCI-H460 lung): 28.1 µM | TGI (786-0 renal): 27.3 µM | TGI (SF-539 CNS): 32.3 µM | TGI (SNB-78 CNS): 29.1 µM | TGI (DLD-1 colon): 25.2 µM

C1=CC=C2NCCCNC3=CC=CC=CC3=NCCCN=C2C=C1
TGI (SF-268 CNS): > 100 µM | TGI (M19-MEL melanoma): > 100 µM | TGI (DMS 273 small cell lung): > 100 µM | TGI (NCI-H460 lung): > 100 µM | TGI (786-0 renal): > 100 µM | TGI (SF-539 CNS): > 100 µM | TGI (UO-31 renal): > 100 µM | TGI (SNB-78 CNS): > 100 µM | TGI (DLD-1 colon): > 100 µM

CC(=O)O[C@]1(C(C)=O)CC[C@H]2[C@@H]3C=C(C)C4=CC(=O)CC[C@]4(C)[C@H]3CC[C@@]21C
GI50 (SF-268 CNS): > 92.8 µM | TGI (SF-268 CNS): > 100 µM | GI50 (NCI-H460 lung): 98.5 µM | TGI (NCI-H460 lung): > 100 µM | GI50 (786-0 renal): > 80.7 µM | TGI (786-0 renal): > 100 µM | GI50 (UACC-257 melanoma): > 89.2 µM | TGI (UACC-257 melanoma): > 100 µM | GI50 (T-47D breast): > 64.7 µM | TGI (T-47D breast): > 100 µM | GI50 (HS 578T breast): > 60.4 µM | TGI (HS 578T breast): > 100 µM | GI50 (SF-539 CNS): > 61.4 µM | TGI (SF-539 CNS): > 100 µM | GI50 (UO-31 renal): > 100 µM | TGI (UO-31 renal): > 100 µM

S=c1cc(S)sc2c1c(=S)sc1nc3ccccn3c(=S)c12
TGI (M19-MEL melanoma): > 100 µM | TGI (DMS 273 small cell lung): > 100 µM | TGI (NCI-H460 lung): 92.1 µM | TGI (786-0 renal): > 100 µM | TGI (SF-539 CNS): > 100 µM | TGI (UO-31 renal): > 100 µM | TGI (SNB-78 CNS): > 100 µM | TGI (DLD-1 colon): > 100 µM

COC(=O)C1=C(C)NC(C)=C(C(=O)OC)C1/C=C(Cl)/C=C/c1ccccc1
GI50 (SF-268 CNS): 20.9 µM | TGI (SF-268 CNS): 58.8 µM | GI50 (NCI-H460 lung): 18.6 µM | TGI (NCI-H460 lung): 45.4 µM | GI50 (786-0 renal): 25.9 µM | TGI (786-0 renal): 70.5 µM | GI50 (UACC-257 melanoma): 16.8 µM | TGI (UACC-257 melanoma): 41 µM | GI50 (T-47D breast): 42.9 µM | TGI (T-47D breast): > 100 µM | GI50 (HS 578T breast): 38.4 µM | TGI (HS 578T breast): > 100 µM | GI50 (SF-539 CNS): 21 µM | TGI (SF-539 CNS): 41.2 µM | GI50 (UO-31 renal): 23.9 µM | TGI (UO-31 renal): > 100 µM

COc1ccc(/C(C#N)=C/c2ccc(OC)c(OC)c2)cc1
TGI (SF-268 CNS): > 100 µM | TGI (NCI-H460 lung): > 100 µM | TGI (786-0 renal): > 100 µM | TGI (UACC-257 melanoma): > 100 µM | TGI (T-47D breast): > 100 µM | TGI (HS 578T breast): > 100 µM | TGI (SF-539 CNS): > 100 µM | TGI (UO-31 renal): > 100 µM
